Laboratory results reported in PubChem BioAssay AID652123 (The Scripps Research Institute Molecular Screening Center, 2013).
Calls of active or inactive are those of the source. No rule for the calls is given here.

Target: Hepatocyte nuclear factor 4-alpha (Homo sapiens) (UniProt P41235)
Experiment: HNF4 dimerization inhibitors, dose response, counter-screen for ABHD5-PLIN5 interaction inhibitor project, biochemical, luminescence, round 2 (AID 652123)
Conditions: HNF4 dimerization biochemical luminescence assay

Hepatocyte nuclear factor 4-alpha (Homo sapiens), sequence (P41235 whole entry, looked up): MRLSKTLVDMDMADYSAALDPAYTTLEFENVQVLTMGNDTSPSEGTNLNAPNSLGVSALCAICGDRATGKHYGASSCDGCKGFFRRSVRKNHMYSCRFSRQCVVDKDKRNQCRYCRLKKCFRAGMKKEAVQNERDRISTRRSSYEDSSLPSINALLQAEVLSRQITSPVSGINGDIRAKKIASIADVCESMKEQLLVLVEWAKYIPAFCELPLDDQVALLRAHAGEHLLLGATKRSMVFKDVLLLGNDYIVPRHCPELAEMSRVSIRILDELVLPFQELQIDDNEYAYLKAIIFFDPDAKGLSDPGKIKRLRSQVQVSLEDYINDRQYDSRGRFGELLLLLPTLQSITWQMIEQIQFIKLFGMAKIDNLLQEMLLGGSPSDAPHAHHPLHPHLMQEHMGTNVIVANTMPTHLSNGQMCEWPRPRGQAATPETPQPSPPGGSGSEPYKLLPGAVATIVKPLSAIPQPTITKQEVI

For CN(C)CCCN(C(=O)C1CCCCC1)c1nc2cc(Cl)ccc2s1, the IC50 was > 39.8 µM (inactive).
In the case of CCS(=O)(=O)c1ncc(Cl)c(C(=O)Nc2ccc(S(N)(=O)=O)cc2)n1, the IC50 is reported as 5.08 µM.
CN(C)CCCN(C(=O)Cc1ccc(F)cc1)c1nc2ccc(Cl)cc2s1 was tested, and the IC50 was > 39.8 µM (inactive).
In the case of CN1C(=O)c2ccccc2Oc2ccc(NC(=O)c3cccs3)cc21, the IC50 is reported as > 39.8 µM (inactive).
With O=C(c1nc(S(=O)(=O)Cc2ccccc2)ncc1Cl)N(Cc1ccccc1)Cc1ccco1 the IC50 was 1.35 µM.
In the case of COc1ccc(CC(=O)N2CCCN(S(=O)(=O)c3ccc(C)cc3)CC2)cc1OC, the IC50 is reported as > 39.8 µM (inactive).
Compound CCCS(=O)(=O)c1ccc(Cl)c(C(=O)Nc2ccc(C(=O)OCC)cc2)c1 has an IC50 of 5.66 µM.
NS(=O)(=O)c1ccc(NC(=O)c2nc(S(=O)(=O)Cc3ccccc3)ncc2Cl)cc1 showed an IC50 of 3.81 µM.
In the case of CCCCCCNC(=O)Nc1ccc2c(c1)Sc1ccccc1C(=O)N2C, the IC50 is reported as > 39.8 µM (inactive).
With O=C(Cc1cccc(F)c1)N1CCN(S(=O)(=O)c2ccc3c(c2)OCCO3)CC1 the IC50 was > 39.8 µM (inactive).
With CCCC(=O)Nc1ccc2c(c1)C(=O)N(C)c1cc(C)ccc1O2 the IC50 was > 39.8 µM (inactive).
CS(=O)(=O)c1ncc(Cl)c(C(=O)Nc2ccc(C(F)(F)F)cc2)n1 gave an IC50 of 1.15 µM.
Work on Cc1ccc(CS(=O)(=O)c2ncc(Cl)c(C(=O)Nc3cccc4ccccc34)n2)cc1 yielded an IC50 of 2.79 µM.
With Cc1ccc(CS(=O)(=O)c2ncc(Cl)c(C(=O)Nc3cccc(C(F)(F)F)c3)n2)cc1 the IC50 was 3.09 µM.
In the case of CCCC(=O)N(CCCN1CCOCC1)c1nc2ccc(Cl)cc2s1, the IC50 is reported as > 39.8 µM (inactive).
For CN1C(=O)c2ccccc2Sc2ccc(NC(=O)NCCc3ccccc3)cc21, the IC50 was > 39.8 µM (inactive).
For Cc1ccc2c(CC(=O)N3CCN(S(=O)(=O)c4ccc5c(c4)OCCCO5)CC3)coc2c1C, the IC50 was > 39.8 µM (inactive).
Work on Cc1ccc(CS(=O)(=O)c2ncc(Cl)c(C(=O)N3CCN(C)CC3)n2)cc1 yielded an IC50 of 2.17 µM.
In the case of Cc1ccc(CS(=O)(=O)c2ncc(Cl)c(C(=O)Nc3nnc(C(C)C)s3)n2)cc1, the IC50 is reported as > 39.8 µM (inactive).
CC(NC(=O)CN1CCN(S(=O)(=O)c2ccc3c(c2)OCCCO3)CC1)c1cc2ccccc2o1 (centres undefined) was tested, and the IC50 was > 39.8 µM (inactive).
For CCS(=O)(=O)c1ncc(Cl)c(C(=O)Nc2ccc(C)cc2)n1, the IC50 was 4.01 µM.
With CCCCCCCNC(=O)Nc1ccc2c(c1)Sc1ccccc1C(=O)N2C the IC50 was > 39.8 µM (inactive).
With CN1C(=O)c2ccccc2Sc2ccc(NC(=O)NCCc3cccs3)cc21 the IC50 was > 39.8 µM (inactive).
In the case of CN(C(=O)c1nc(S(C)(=O)=O)ncc1Cl)c1ccccc1, the IC50 is reported as 1.38 µM.
In the case of Cc1ccc(CS(=O)(=O)c2ncc(Cl)c(C(=O)NCc3ccc4c(c3)OCO4)n2)cc1, the IC50 is reported as 1.87 µM.
In the case of CN(C)CCCN(C(=O)c1cc2ccccc2oc1=O)c1nc2ccc(Cl)cc2s1, the IC50 is reported as > 39.8 µM (inactive).
With CCCCCNC(=O)Nc1ccc2c(c1)Sc1ccccc1C(=O)N2C the IC50 was > 39.8 µM (inactive).
O=C(Nc1ccc2ccccc2c1)c1nc(S(=O)(=O)Cc2ccccc2)ncc1Cl showed an IC50 of 2.42 µM.
In the case of CCCC(=O)Nc1ccc2c(c1)C(=O)N(C)c1ccccc1O2, the IC50 is reported as > 39.8 µM (inactive).
With CCCNC(=O)Nc1ccc2c(c1)N(CC)C(=O)c1ccccc1S2 the IC50 was > 39.8 µM (inactive).
With O=C(Cc1ccc2c(c1)CCCC2)N1CCN(S(=O)(=O)c2ccc3c(c2)OCCO3)CC1 the IC50 was “inactive”.
With CN(C)CCCN(C(=O)CCc1ccccc1)c1nc2ccc(Cl)cc2s1 the IC50 was > 39.8 µM (inactive).
Cc1ccc(NC(=O)c2nc(S(C)(=O)=O)ncc2Cl)cc1 gave an IC50 of 2.44 µM.
For CC(C)N1C(=O)c2ccccc2Oc2ccc(NC(=O)c3ccccc3)cc21, the IC50 was > 39.8 µM (inactive).
For CN(C)CCCN(C(=O)C1CCCCC1)c1nc2cc(Br)ccc2s1, the IC50 was > 39.8 µM (inactive).
CN1C(=O)c2ccccc2Oc2ccc(NC(=O)c3cc4ccccc4[nH]3)cc21 was tested, and the IC50 was > 39.8 µM (inactive).
With CN1C(=O)c2ccccc2Sc2ccc(NC(=O)NCCCc3ccccc3)cc21 the IC50 was > 39.8 µM (inactive).
Compound CCCS(=O)(=O)c1ncc(Cl)c(C(=O)Nc2ccc(C(=O)OC)cc2)n1 has an IC50 of 4.99 µM.
In the case of COc1ccc(CCNC(=O)c2nc(S(=O)(=O)Cc3ccc(F)cc3)ncc2Cl)cc1OC, the IC50 is reported as 1.94 µM.
